Test results taken from patent US20200223839A1, “FLUORO-CONTAINING COMPOUNDS, USE AND PREPARATION THEREOF” (JIANGSU YINGKEBEITA YIYAOKEJI CO. LTD, priority 2017, published 2020).

Key:
MDA-MB-468 [1] = test: Cell culture and cytotoxicity assay (CTG), MDA-MB-468; type: cell-based, human
Procedure: (§1) The assayed compounds each was dissolved in DMSO with a final concentration of 10 mM or 40 mM and stored at −20° C. Tumor cell lines A549 (7,000 cells/well), BT474 (12,000 cells/well), MDA-MB-468 (12,000 cells/well), and HCC1937 (6,000 cells/well) were seeded on 96-well plates. And the cells were pre-incubated at 37° C./5% CO2 for 24 hours. The cells were exposed to different concentrations of the assay compounds (from 400 μM to 782 nM, from 200 μM to 391 nM, from 100 μM to 196 nM, and from 50 μM to 98 nM) for the following time:
(§2) After incubation, 100 μL from each well was discarded and CTG base (Proega, G7571, 50 μL) was added and the mixture was agitated for 2 minutes. The mixtures were stored in a dark room for 10 minutes and the viability was analyzed with Multiskan microplate reader.

HCC1937 = test: Cell culture and cytotoxicity assay (CTG), HCC1937; type: cell-based; conditions: Homo sapiens, HCC1937, exposure 72 hours
Procedure: as §1, §2

MCF-7 = test: Cytotoxicity assay by the CTG method, MCF-7; type: cell-based; conditions: Homo sapiens, MCF7, MCF-7, Breast cancer, 72 h
Procedure: (§3) The corresponding cells were harvested from flask into cell culture medium and the cell number were counted. The cells were diluted with culture medium to the desired density and 40 μL of cell suspension was added into each well of 384-well cell culture plate as designated. The plates were covered with lid and placed in room temperature for 30 minutes without shaking and then were transferred plates into 37° C. 5% CO2 incubator overnight for cell attachment.
(§4) Compound preparation and treatment: Test compounds were received or dissolved at 30 mM stock solution and control compound Staurosporine was stored as 10 mM and 1 mM concentration. 45 uL of stock solution was transferred to a 384 pp-plate. 3 fold, 10-point dilution were performed via transferring 15 uL compound into 30 μL DMSO by using TECAN (EVO200) liquid handler. The plates were spun at room temperature at 1,000 RPM for 1 minute and shaken at a plate shaker for 2 minutes. […]
(§5) The plate from incubators were placed and equilibrated at room temperature for 15 minutes. […] 40 μL of CellTiter-Glo reagent were transferred into each well to be detected (at 1:1 to culture medium). Then the plates were placed at room temperature for 30 min followed by reading on EnSpire.
(§6) The inhibition activity was calculated following the formula below: […]
(§7) The IC50 were calculated by fitting the Curve using Xlfit (v5.3.1.3): […]

MDA-MB-468 [2] = test: Cytotoxicity assay by the CTG method, MDA-MB-468; type: cell-based; conditions: Homo sapiens, MDA-MB-468, Breast cancer, 72 h
Procedure: as §3, §4, §5, §6, §7

T-47D = test: Cytotoxicity assay by the CTG method, T-47D; type: cell-based; conditions: Homo sapiens, T47D, Breast cancer, 72 h
Procedure: as §3, §4, §5, §6, §7

ZR-75-1 = test: Cytotoxicity assay by the CTG method, ZR-75-1; type: cell-based; conditions: Homo sapiens, ZR-75-1, Breast cancer, 72 h
Procedure: as §3, §4, §5, §6, §7

HCT116 = test: Cytotoxicity assay by the CTG method, HCT116; type: cell-based; conditions: Homo sapiens, HCT-116, HCT116, Colon cancer, 72 h
Procedure: as §3, §4, §5, §6, §7

HT29 = test: Cytotoxicity assay by the CTG method, HT29; type: cell-based; conditions: Homo sapiens, HT-29, HT29, Colon cancer, 72 h
Procedure: as §3, §4, §5, §6, §7

LoVo = test: Cytotoxicity assay by the CTG method, LoVo; type: cell-based; conditions: Homo sapiens, Colon cancer, 72 h
Procedure: as §3, §4, §5, §6, §7

A498 = test: Cytotoxicity assay by the CTG method, A498; type: cell-based; conditions: Homo sapiens, A498, Kidney cancer, 72 h
Procedure: as §3, §4, §5, §6, §7

MOLT4 = test: Cytotoxicity assay by the CTG method, MOLT4; type: cell-based; conditions: Homo sapiens, MOLT-4, MOLT4, Leukemia, 72 h
Procedure: as §3, §4, §5, §6, §7

MV-4-11 = test: Cytotoxicity assay by the CTG method, MV-4-11; type: cell-based; conditions: Homo sapiens, MV4-11, MV-4-11, Leukemia, 72 h
Procedure: as §3, §4, §5, §6, §7

Hep3B = test: Cytotoxicity assay by the CTG method, Hep3B; type: cell-based; conditions: Homo sapiens, Liver cancer, 72 h
Procedure: as §3, §4, §5, §6, §7

PLC/PRF/5 = test: Cytotoxicity assay by the CTG method, PLC/PRF/5; type: cell-based; conditions: Homo sapiens, PLC/PRF/5, Liver cancer, 72 h
Procedure: as §3, §4, §5, §6, §7

NCI-H446 = test: Cytotoxicity assay by the CTG method, NCI-H446; type: cell-based; conditions: Homo sapiens, NCI-H446, Lung cancer, 72 h
Procedure: as §3, §4, §5, §6, §7

U937 = test: Cytotoxicity assay by the CTG method, U937; type: cell-based; conditions: Homo sapiens, U-937, U937, Lymphoma, 72 h
Procedure: as §3, §4, §5, §6, §7

A2058 = test: Cytotoxicity assay by the CTG method, A2058; type: cell-based; conditions: Homo sapiens, A2058, Melanoma, 72 h
Procedure: as §3, §4, §5, §6, §7

U87MG = test: Cytotoxicity assay by the CTG method, U87MG; type: cell-based; conditions: Homo sapiens, U-87 MG, Glioblastoma, 72 h
Procedure: as §3, §4, §5, §6, §7

[3] = tested on: MDA-MB-468 cells (human breast cancer) implanted in BALB/c-nu mice; test: In vivo xenograft study, MDA-MB-468, tumor sizes; conditions: MDA-MB-468 xenograft in BALB/c-nu mice, FIGS. 2 and 4
Procedure: MDA-MB-468 cells (human breast cancer) in its log growth phase were implanted in BALB/c-nu mice. When the tumor volume was approximately 50-150 mm^3, the mice were randomized into four groups, each include 8 mice. The four groups were treated with vehicle, Ref. 1, 4f, and Ref. 2, respectively, and the tumor sizes were measured two to three times each week and the mice were also weighted.

[4] = tested on: MDA-MB-453 cells (human breast cancer); test: In vivo mouse model, MDA-MB-453, tumor sizes; conditions: MDA-MB-453 mouse model, similar dosage (for example, 100 mg/Kg), FIG. 6
Excerpt: MDA-MB-453 cells (human breast cancer) were also studied in a mouse model. […] FIG. 7.

[5] = In vivo mouse model, Hep3B, mice weights
Excerpt: Hep3B cells (human liver cancer) were also studied in a mouse model. […] FIG. 9.

Question: For `Cc1ccc(S(=O)(=O)Nc2nc3ccccc3nc2Nc2ccc3nsnc3c2)cc1F` [Compound 4f, N-[3-(benzo[1,2,5]thiadiazol-5-ylamino)-quinoxalin-2-yl]-3-fluoro-4-methyl-benzenesulfonamide], which IC50 (MDA-MB-468 [1]; Homo sapiens, MDA-MB-468, exposure 72 hours, CTG) is on record?
Answer: Its IC50 is 781 to 1560 nM.

Question: And the “anticancer activity compared with known compounds (FIG. 1)” value (MDA-MB-468 [1]; MDA-MB-468 cytotoxicity, versus Ref. 1, Ref. 3, XL147-A, BEZ235)?
Answer: The value was “much better anticancer activity than any of the known compounds”.

Question: What about the IC50 (HCC1937) of the same compound?
Answer: Its IC50 is 37900 nM.

Question: And the IC50 (MCF-7)?
Answer: Its IC50 is 5.19 µM.

Question: What about the IC50 (MDA-MB-468 [2]) of the same compound?
Answer: The IC50 was 2.49 µM.

Question: And the IC50 (T-47D)?
Answer: The IC50 was 5.74 µM.

Question: What about the IC50 (ZR-75-1) of the same compound?
Answer: The IC50 was 1.53 µM.

Question: What about the IC50 (HCT116) of the same compound?
Answer: Its IC50 is 5.44 µM.

Question: What about the IC50 (HT29) of the same compound?
Answer: The IC50 was 2.44 µM.

Question: And the IC50 (LoVo)?
Answer: Its IC50 is 21.7 µM.

Question: And the IC50 (A498)?
Answer: Its IC50 is 3.68 µM.

Question: And the IC50 (MOLT4)?
Answer: The IC50 was 4.72 µM.

Question: What about the IC50 (MV-4-11) of the same compound?
Answer: Its IC50 is 6.8 µM.

Question: And the IC50 (Hep3B)?
Answer: The IC50 was 3.97 µM.

Question: What about the IC50 (PLC/PRF/5) of the same compound?
Answer: The IC50 was 3.27 µM.

Question: What about the IC50 (NCI-H446) of the same compound?
Answer: The IC50 was 3.92 µM.

Question: And the IC50 (U937)?
Answer: The IC50 was 3.68 µM.

Question: And the IC50 (A2058)?
Answer: The IC50 was 7.7 µM.

Question: What about the IC50 (U87MG) of the same compound?
Answer: Its IC50 is 18 µM.

Question: What about the “anticancer activity (tumor sizes) versus vehicle” value [3] of the same compound?
Answer: Its value is “significant anticancer activities”.

Question: And the “anticancer activities (tumor sizes) compared with Ref. 2” value [4]?
Answer: The value was “better anticancer activities than Ref. 2”.

Question: And the weight changes ([5]; FIG. 9, 50 mg/Kg)?
Answer: Its weight changes is “no difference in weight changes”.

Question: What about the weight changes ([5]; FIG. 9, 100 mg/Kg) of the same compound?
Answer: The weight changes was “no difference in weight changes”.
